From patent publication US9669028B2, “Substituted 5-(pyrazin-2-yl)-1H-pyrazolo [3, 4-B] pyridine and pyrazolo [3, 4-B] pyridine derivatives as protein kinase inhibitors” (Arrien Pharmaceuticals LLC, priority 2011, dated 2017)
≈ marks a conversion by molar mass, not a printed value. Where “and” joins values, the source holds several entries; their conditions need not be identical. Equal entries are not always repeated.

What was measured:
[1] = system: MPTP-injected C57 black mice; assay: MPTP mouse model, intravenous pre-treatment; format: in vivo; conditions: 5 mg/kg i.v.
Protocol: 24 C57 black mice (C57/bl6, 6-8 week old, and 25-30 g) were purchased from Charles River Laboratories, Ohio. […] Prior to treatment animals were pre-trained on rotarod for at least 3 minutes every day for three successive days. Test compound (5 mg/kg) was administered intravenously to group C animals, 24 h prior to MPTP-injection and continued daily for additional 11 days. MPTP was dissolved in PBS and injected intraperitoneally (i.p.) at doses of 25 mg/kg, once daily for 5 days to group B and C animals. Group A animals were injected with saline (i.p.) to be used as controls. Urine and Faeces were collected on Day 8, behavioural studies were performed on Day 9 (4-days post-MPTP). On day 12 (7 days post-MPTP), 4 animals/group were sacrificed, different brains regions including striatum and substantia nigra were dissected. Left striatum were used for neurochemical analysis. Other 4 animals/group were perfused and used for TH immunohistological studies.

[2] = system: MPTP-injected C57 black mice; assay: MPTP mouse model, post-treatment study; format: in vivo; conditions: post-administration, oral and i.v routes
Protocol: (§1) 32 C57 black mice (C57/bl6, 6-8 week old, 25-30 g) were purchased from Charles River Laboratories, Ohio. […] All animals were housed in Laboratory of Animal Resources vivarium at Iowa State University under standard conditions: constant temperature (22±1° C.), humidity (relative, 30%), and a 12-h light/dark cycle. Mice were allowed free access to food and water. Use of the animals and protocol procedures were approved and supervised by the Committee on Animal Care at Iowa State University (Ames, Iowa). Test compounds were dissolved in PBS for this study. Prior to treatment animals were pre-trained on rotarod for at least 3 minutes every day for three successive days. Group A animals were injected with saline (i.p.) to be used as controls. MPTP was dissolved in PBS and injected intraperitoneally (i.p.) at doses of 25 mg/kg, once daily for 5 days to group B, C and D animals. On day 4, prior to 4th MPTP injection, group C animals received test compounds (30 mg/kg, oral) daily for eight days. Similarly, on day 4, prior to 4th MPTP injection, group D animals received test compounds (5 mg/kg, i.v) daily for eight days. On day 9 (Post-test compounds administration) or day 12 (7 days post-MPTP), 4 animals/group were sacrificed, different brain regions including striatum and substantia nigra were dissected. Left striatum were used for neurochemical analysis. Other 4 animals/group were perfused and used for TH immunohistological studies.

[3] = BBB post-treatment results, concentration in mice brains; format: in vivo, mouse; conditions: pooled regions
Protocol: as §1, with “Other 4 animals/group were perfused and used for TH immunohistological studies.” left out

[4] = system: MPTP-injected C57 black mice; assay: MPTP mouse model of Parkinson's disease, oral pre-treatment; format: in vivo; conditions: for protection against MPTP-induced TH cell loss and dopaminergic degeneration in substantia nigra and striatum: 10 mg/kg and 30 mg/kg oral; for locomotor activities in MPTP-injected mice / striatal dopamine levels in MPTP treated mice: orally administered, pre-treatment
in vivo = conditions: male, Sprague Dawley
Source text: To investigate the pharmacokinetic profiles of test compound following intravenous bolus administration and oral gavage in male Sprague Dawley rats.

[5] = system: Rat hepatoma (H4IIE) cell line; assay: In vitro toxicology, general cytotoxicity; format: cell-based; conditions: rat, 24 h
Protocol: Cells were seeded into 96-well plates and cultured in medium containing 20% bovine serum. […] General cytotoxicity was evaluated by monitoring membrane integrity (MBR, cell supernatant), cell mass (PI) and mitochondrial function (cellular ATP levels). Rotenone was included as a positive control because it produces measurable effects in all three assays. DMSO at 0.5% in medium was included as a negative control. Three wells per exposure concentration were used in each assay. Results are summarized in Table 8 and are expressed as percent of control, with control values set at 100%. […] Test compounds 13 and 13 HCl were rank-ordered from most to least toxic based on individual membrane integrity and ATP responses as well as resultant TC50 values.
Test compounds 13 and 13 HCl were rank-ordered from highest to lowest probability of producing toxicity based first on membrane toxicity, then on ATP, and finally on cell mass (PI). It is important to note that within a given grouping compounds may be classified as to their primary effect being either cytotoxic, cytostatic, or reducing mitochondrial function. In general, compound responses above 80% of vehicle control are considered to be low-to-no effect, moderates generally rank 80% to 50% of vehicle control, and those compounds that cross the 50% mark are considered to have higher probability of toxicity.

LRRK2 = LRRK2 (Homo sapiens (Human), UniProt Q5S007); assay: LRRK2 Kinase Assay; format: biochemical; conditions: 10 μM ATP
LRRK2, sequence (Q5S007 970-2527): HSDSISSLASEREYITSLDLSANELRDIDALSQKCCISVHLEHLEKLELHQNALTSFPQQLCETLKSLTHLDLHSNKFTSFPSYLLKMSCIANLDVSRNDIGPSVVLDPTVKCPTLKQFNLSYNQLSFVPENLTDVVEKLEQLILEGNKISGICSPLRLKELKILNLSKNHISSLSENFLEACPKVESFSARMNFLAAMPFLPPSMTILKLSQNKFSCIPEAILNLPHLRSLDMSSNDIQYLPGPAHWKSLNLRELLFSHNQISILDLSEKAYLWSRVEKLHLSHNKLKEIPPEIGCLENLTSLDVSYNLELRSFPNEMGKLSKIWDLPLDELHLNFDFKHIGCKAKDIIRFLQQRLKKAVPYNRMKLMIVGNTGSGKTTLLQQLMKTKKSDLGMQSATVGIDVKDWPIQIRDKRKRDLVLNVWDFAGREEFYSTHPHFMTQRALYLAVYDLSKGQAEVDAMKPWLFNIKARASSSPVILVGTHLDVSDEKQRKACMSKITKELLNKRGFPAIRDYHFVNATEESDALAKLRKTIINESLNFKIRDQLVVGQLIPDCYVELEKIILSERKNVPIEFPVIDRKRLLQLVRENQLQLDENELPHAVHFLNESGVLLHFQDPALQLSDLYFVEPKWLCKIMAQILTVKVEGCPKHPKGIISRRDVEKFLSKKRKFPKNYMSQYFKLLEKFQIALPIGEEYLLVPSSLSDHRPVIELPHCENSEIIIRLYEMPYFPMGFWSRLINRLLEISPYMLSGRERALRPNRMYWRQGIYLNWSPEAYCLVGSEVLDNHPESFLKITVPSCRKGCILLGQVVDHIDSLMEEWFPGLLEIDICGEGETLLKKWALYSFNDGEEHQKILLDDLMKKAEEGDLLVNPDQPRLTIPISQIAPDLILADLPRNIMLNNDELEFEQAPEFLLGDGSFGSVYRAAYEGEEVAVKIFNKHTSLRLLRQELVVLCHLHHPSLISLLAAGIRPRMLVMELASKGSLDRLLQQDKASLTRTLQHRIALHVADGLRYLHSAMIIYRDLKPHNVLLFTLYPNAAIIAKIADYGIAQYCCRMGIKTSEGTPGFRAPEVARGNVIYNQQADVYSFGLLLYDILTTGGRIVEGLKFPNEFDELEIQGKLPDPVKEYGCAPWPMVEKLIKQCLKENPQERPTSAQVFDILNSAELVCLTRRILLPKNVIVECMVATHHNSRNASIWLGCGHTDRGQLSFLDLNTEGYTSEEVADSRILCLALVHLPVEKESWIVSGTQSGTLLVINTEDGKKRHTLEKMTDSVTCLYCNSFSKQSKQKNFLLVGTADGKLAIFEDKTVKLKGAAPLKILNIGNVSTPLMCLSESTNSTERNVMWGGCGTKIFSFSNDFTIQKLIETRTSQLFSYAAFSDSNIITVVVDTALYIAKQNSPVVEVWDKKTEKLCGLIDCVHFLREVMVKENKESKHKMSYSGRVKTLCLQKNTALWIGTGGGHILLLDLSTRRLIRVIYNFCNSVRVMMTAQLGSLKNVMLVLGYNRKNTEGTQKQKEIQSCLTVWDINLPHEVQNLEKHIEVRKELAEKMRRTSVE
Procedure, shortened: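 Radiometric filter-binding assay: compound pre-incubated ~20 min with kinase and substrate peptide in 20 mM HEPES pH 7.5, 10 mM MgCl2, 1% DMSO, then 10 μM ATP with 33P-ATP added.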

[6] = system: 299 protein kinases+17 additional preview kinases; assay: Protein Kinase Selectivity Profiler; format: biochemical, human; conditions: 10 μM ATP
Protocol: In vitro profiling of the 317 member kinase panel was performed at Reaction Biology Corporation using the “HotSpot” assay platform. Briefly, specific kinase/substrate pairs along with required cofactors were prepared in reaction buffer; 20 mM Hepes (pH 7.5), 10 mM MgCl2, 1 mM EGTA, 0.02% Brij35, 0.02 mg/ml BSA, 0.1 mM Na3VO4, 2 mM DTT, 1% DMSO. Compounds were delivered into the reaction, followed ˜20 min later by addition of a mixture of ATP (Sigma) and 33P ATP (PerkinElmer) to a final concentration of 10 μM. Reactions were carried out at 25° C. for 120 min, followed by spotting of the reactions onto P81 ion exchange filter paper (Whatman). Unbound phosphate was removed by extensive washing of filters in 0.75% phosphoric acid. […] IC50 values and curve fits were obtained using Prism (GraphPad Software). Kinome tree representations were prepared using Kinome Mapper (http://www.reactionbiology.com/apps/kinome/mapper/Launch Kinome.htm). Specifically for the LRRK2 enzyme the substrate LRRKtide (gene bank and protein access numbers NP_940980.2 Q5S007) and clone aa 970-2527 expressed in baculovirus in insect cells with N-terminal GST tag was employed in the study protocol. In the case of DYRK1A (SEQ ID NO 16) the substrate casein (gene bank and protein access numbers NP_001387 Q13627) full length clone expressed in insect with n-terminal tag was used.
A control compound was tested in 10-dose IC50 mode with 3-fold serial dilution starting at 20 μM. Reactions were carried out at 10 μM ATP. Data pages include raw data, % Enzyme activity (relative to DMSO controls), and curve fits.

DYRK1A = DYRK1A (Homo sapiens (Human), UniProt Q13627); assay: In vitro DYRK1A inhibition assay; format: biochemical
recombinant human MAO-A = recombinant human MAO-A (Homo sapiens (Human), UniProt P21397); assay: Inhibition of monoamine oxidase MAO-A; format: biochemical; conditions: kynuramine 50 μM, 25 min at 37° C.
recombinant human MAO-A, sequence (P21397 whole entry): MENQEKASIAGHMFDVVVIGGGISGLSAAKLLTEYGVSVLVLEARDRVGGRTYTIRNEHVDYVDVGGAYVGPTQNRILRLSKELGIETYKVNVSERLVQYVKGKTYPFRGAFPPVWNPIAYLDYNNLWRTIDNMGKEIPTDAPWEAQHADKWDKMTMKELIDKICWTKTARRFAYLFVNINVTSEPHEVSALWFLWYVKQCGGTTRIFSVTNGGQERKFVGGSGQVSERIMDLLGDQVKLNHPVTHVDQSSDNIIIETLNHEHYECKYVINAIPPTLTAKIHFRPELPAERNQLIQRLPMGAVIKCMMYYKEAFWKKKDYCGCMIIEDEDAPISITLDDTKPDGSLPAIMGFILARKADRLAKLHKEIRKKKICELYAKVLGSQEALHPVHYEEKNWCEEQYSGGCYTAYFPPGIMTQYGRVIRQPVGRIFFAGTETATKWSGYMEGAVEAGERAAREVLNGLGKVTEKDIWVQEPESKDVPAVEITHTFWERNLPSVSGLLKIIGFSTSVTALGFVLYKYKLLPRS
Protocol: (§2) Test compounds (0.01-100 μM) final DMSO concentration 0.1%, were incubated with recombinant human MAO-A (2 μg/mL) or MAO-B (2 μg/mL) in the presence of the probe substrate kynuramine (50 μM) for 25 min at 37° C. […] The reactions were terminated by addition of methanol containing internal standard for analytical quantification. The quenched samples were incubated at 4° C. for 10 min and centrifuged at 4° C. for 10 min. The supernatant was removed and analyzed by LC-MS/MS for the probe metabolite 4-hydroxyquinoline.

LRRK2 G2019S = LRRK2 G2019S (Homo sapiens (Human), UniProt Q5S007, G2019S); assay: LRRK2 G2019S Kinase Assay; format: biochemical; conditions: 10 μM ATP
LRRK2 G2019S, sequence (Q5S007 970-2527 G2019S): as the sequence (Q5S007 970-2527) above, with G1050S counted along it
Procedure, shortened: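 Radiometric filter-binding assay: enzyme, substrate peptide and compound were mixed on ice, ATP added, then incubated 20 min at 30° C. Reaction was stopped with phosphoric acid and the peptide captured on filters. Incorporated radioactivity was read by scintillation counting; staurosporine served as reference.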

recombinant human MAO-B = recombinant human MAO-B (Homo sapiens (Human), UniProt P27338); assay: Inhibition of monoamine oxidase MAO-B; format: biochemical; conditions: kynuramine 50 μM, 25 min at 37° C.
recombinant human MAO-B, sequence (P27338 whole entry): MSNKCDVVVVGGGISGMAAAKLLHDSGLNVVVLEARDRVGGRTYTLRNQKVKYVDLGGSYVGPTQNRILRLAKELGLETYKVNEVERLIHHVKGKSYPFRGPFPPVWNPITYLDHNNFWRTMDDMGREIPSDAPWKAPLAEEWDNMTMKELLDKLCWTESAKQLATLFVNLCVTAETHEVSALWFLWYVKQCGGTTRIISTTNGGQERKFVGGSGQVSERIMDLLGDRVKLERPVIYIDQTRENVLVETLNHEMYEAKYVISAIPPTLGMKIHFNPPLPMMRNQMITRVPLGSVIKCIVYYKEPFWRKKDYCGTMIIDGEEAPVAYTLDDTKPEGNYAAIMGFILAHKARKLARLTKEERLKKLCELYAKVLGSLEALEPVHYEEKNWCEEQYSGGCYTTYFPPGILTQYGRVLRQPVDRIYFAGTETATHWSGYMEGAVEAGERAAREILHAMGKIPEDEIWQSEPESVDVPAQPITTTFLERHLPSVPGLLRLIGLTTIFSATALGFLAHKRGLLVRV
Protocol: as §2

Cc1n[nH]c2ncc(-c3cncc(NC4CCN(C)CC4)n3)cc12.Cl [13 HCl, 6-(3-methyl-1H-pyrazolo[3,4-b]pyridin-5-yl)-N-(1-methylpiperidin-4-yl)pyrazin-2-amine hydrochloride]
protection against MPTP-induced TH neuronal loss in the substantia nigra and in the striatum [1]: Protect Against MPTP-Induced TH Neuronal Loss | protection against MPTP-induced histological deficits [2]: significantly protected | protection against MPTP-induced motor-deficits [2]: significantly protected | protection against MPTP-induced neurochemical deficits [2]: not against neurochemical deficits | Calc. Conc. of test compound 13 HCl in Mice Brains ([3]; individual subjects, hydrochloride): 2.92 ng/g and 1.36 ng/g and 2.32 ng/g and 3.09 ng/g and 3.79 ng/g and 2.74 ng/g and 3.03 ng/g and 2.72 ng/g | Calc. Conc. of test compound 13 HCl in Mice Brains, Mean ([3]; mean of subjects): 2.75 ng/g | protection against MPTP-induced TH cell loss and dopaminergic degeneration in substantia nigra and striatum [4]: dose-dependent protection | locomotor activities in MPTP-injected mice [4]: Improve Locomotor Activities | striatal dopamine levels in MPTP treated mice [4]: Restore Striatal Dopamine Levels | solubility (physchem): 50 µM | AUC(0-t) (in vivo; rat, iv, 5 mg/kg): 1.02 µg·h/mL | Vd (in vivo; rat, iv, 5 mg/kg): 15.2 L/kg | clearance (in vivo; rat, iv, 5 mg/kg): 7.37 L/h/kg | half-life (in vivo; rat, iv, 5 mg/kg): 2.26 h | AUC(0-t) (in vivo; rat, po, 30 mg/kg): 1.04 µg·h/mL | Cmax (in vivo; rat, po, 30 mg/kg): 0.133 µg/mL | F (in vivo; rat, po, 30 mg/kg): 24% | Tmax (in vivo; rat, po, 30 mg/kg): 6.7 h | ATP TC50 [5]: >50 µM | Cell Mass TC50 [5]: >50 µM | Mem Tox TC50 [5]: >50 µM | ATP % Control ([5]; 5 μM): 93% | Cell Mass % Control ([5]; 5 μM): 89% | Mem Tox % Control ([5]; 5 μM): 93% | ATP % Control ([5]; 10 μM): 91% | Cell Mass % Control ([5]; 10 μM): 81% | Mem Tox % Control ([5]; 10 μM): 91% | ATP % Control ([5]; 50 μM): 78% | Cell Mass % Control ([5]; 50 μM): 62% | Mem Tox % Control ([5]; 50 μM): 90%

Cc1n[nH]c2ncc(-c3cncc(NC4CCN(C)CC4)n3)cc12 [Compound 13, 6-(3methyl-1H-pyrazolo[3,4-b]pyridine-5yl)-N-(1-methylpiperidine-4yl)pyrazin-2-amine]
IC50 (LRRK2): < 0.5 µM | activity against kinases in broader scope, relative to DMSO control ([6]; ABL1 T315I, ALK2, ARK5, Aurora A/B/C, BRAF, C-KIT, CLK1-4, CSF1R, DYRK1A-4, FLT3, GSK3β, JAK1-3, KDR, LCK ... TRKA-C, single dose): 5-15% | IC50 (DYRK1A): < 0.5 µM | IC50 (recombinant human MAO-A): > 100 µM | IC50 (LRRK2 G2019S): < 0.5 µM | protection against MPTP-induced TH cell loss and dopaminergic degeneration in substantia nigra and striatum [4]: dose-dependent protection | locomotor activities in MPTP-injected mice [4]: Improve Locomotor Activities | striatal dopamine levels in MPTP treated mice [4]: Restore Striatal Dopamine Levels | IC50 (recombinant human MAO-B): > 100 µM | solubility (physchem): 50 µM (≈ 16.2 µg/mL) | AUC(0-t) (in vivo; in vivo, iv, 5 mg/kg): 1.02 µg·h/mL | Vd (in vivo; in vivo, iv, 5 mg/kg): 15.2 L/kg | clearance (in vivo; in vivo, iv, 5 mg/kg): 7.37 L/h/kg | AUC(0-t) (in vivo; in vivo, po, 30 mg/kg): 1.04 µg·h/mL | Cmax (in vivo; in vivo, po, 30 mg/kg): 0.133 µg/mL | half-life (in vivo; rat, iv, 5 mg/kg): 2.26 h | F (in vivo; rat, po, 30 mg/kg): 24% | Tmax (in vivo; rat, po, 30 mg/kg): 6.7 h | ATP TC50 [5]: >50 µM | Cell Mass TC50 [5]: >50 µM | Mem Tox TC50 [5]: >50 µM | ATP % Control ([5]; 5 μM): 99% | Cell Mass % Control ([5]; 5 μM): 93% | Mem Tox % Control ([5]; 5 μM): 100% | ATP % Control ([5]; 10 μM): 99% | Cell Mass % Control ([5]; 10 μM): 88% | Mem Tox % Control ([5]; 10 μM): 96% | ATP % Control ([5]; 50 μM): 74% | Cell Mass % Control ([5]; 50 μM): 71% | Mem Tox % Control ([5]; 50 μM): 94%

c1cc2cc(-c3cncc(N4CCOCC4)n3)cnc2[nH]1 [Compound 148, 4-(6-(1H-pyrrolo[2,3-b]pyridin-5-yl)pyrazin-2-yl)morpholine]
IC50 (LRRK2): < 0.5 µM | % enzyme inhibition relative to DMSO controls ([6]; LRRK2, LRRK2 G2019S, CHK1, DYRK1A, FLT3, MLK1, TNIK, TRKA, single dose 0.5 μM, 1 μM): 5-15% | IC50 (DYRK1A): < 0.5 µM | protection against MPTP-induced histological deficits [2]: significantly protected | protection against MPTP-induced motor-deficits [2]: significantly protected | protection against MPTP-induced neurochemical deficits [2]: not against neurochemical deficits | IC50 (recombinant human MAO-A): > 100 µM | IC50 (LRRK2 G2019S): < 0.5 µM | protection against MPTP-induced TH cell loss and dopaminergic degeneration in substantia nigra and striatum [4]: dose-dependent protection | locomotor activities in MPTP-injected mice [4]: Improve Locomotor Activities | striatal dopamine levels in MPTP treated mice [4]: Restore Striatal Dopamine Levels | IC50 (recombinant human MAO-B): 8.8 µM | AUC(0-t) (in vivo; rat, iv, 5 mg/kg): 1.02 µg·h/mL | Vd (in vivo; rat, iv, 5 mg/kg): 15.2 L/kg | clearance (in vivo; rat, iv, 5 mg/kg): 7.37 L/h/kg | half-life (in vivo; rat, iv, 5 mg/kg): 2.26 h | AUC(0-t) (in vivo; rat, po, 30 mg/kg): 1.04 µg·h/mL | Cmax (in vivo; rat, po, 30 mg/kg): 0.133 µg/mL | F (in vivo; rat, po, 30 mg/kg): 24% | Tmax (in vivo; rat, po, 30 mg/kg): 6.7 h
